The test system of the first experiment is production of CD69 by B lymphocytes in human whole blood activated with goat F(ab')2 anti-human IgM. The experiment can be described thus: CD69 Whole Blood Assay (CD69 Hu Blood FACS). The following applies: anti-IgM stimulated, 20 hour incubation, CD69+ of CD20+ cells, Table 1. It is filed as cell-based. The text has this:
A CD69 Whole Blood Assay can be conducted on Formula I compounds to determine the ability of compounds to inhibit the production of CD69 by B lymphocytes in human whole blood activated by crosslinking surface IgM with goat F(ab′)2 anti-human IgM (Example 907). CD69 is a type II C-type lectin involved in lymphocyte migration and cytokine secretion. CD69 expression represents one of the earliest available indicators of leukocyte activation and its rapid induction occurs through transcriptional activation (Vazquez et al (2009) Jour. of Immunology Published Oct. 19, 2009, doi:10.4049/jimmunol.0900839). Concentration-dependent inhibition of antigen receptor stimulation by selective Btk inhibitors induces cell surface expression of the lymphocyte activation marker CD69 (Honigberg et al (2010) Proc. Natl. Acad. Sci. 107(29):13075-13080). Thus, CD69 inhibition by selective Btk inhibitors may be correlated with therapeutic efficacy of certain B-cell disorders.
Human blood is obtained from healthy volunteers, with the following restrictions: 1 week drug-free, non-smokers. Blood (approximately 20 mls to test 8 compounds) is collected by venipuncture into Vacutainer® (Becton, Dickinson and Co.) tubes with sodium heparin.
Solutions of Formula I compounds at 10 mM in DMSO are diluted 1:10 in 100% DMSO, then are diluted by three-fold serial dilutions in 100% DMSO for a ten point dose-response curve. The compounds are further diluted 1:10 in PBS and then an aliquot of 5.5 μl of each compound is added in duplicate to a 2 ml 96-well plate; 5.5 μl of 10% DMSO in PBS is added as control and no-stimulus wells. Human whole blood—HWB (100 μl) is added to each well. After mixing the plates are incubated at 37° C., 5% CO2, 100% humidity for 30 minutes. Goat F(ab′)2 anti-human IgM (10 μl of a 500 μg/ml solution, 50 μg/ml final) is added to each well (except the no-stimulus wells) with mixing and the plates are incubated for an additional 20 hours. At the end of the 20 hour incubation, samples are incubated with fluorescent labeled antibodies for 30 minutes, at 37° C., 5% CO2, 100% humidity. Include induced control, unstained and single stains for compensation adjustments and initial voltage settings. Samples are then lysed with PharM Lyse™ (BD Biosciences Pharmingen) according to the manufacturer's instructions. Samples are then transferred to a 96 well plate suitable to be run on the BD Biosciences HTS 96 well system on the LSRII machine. Data acquired and Mean Fluorescence Intensity values were obtained using BD Biosciences DIVA Software. Results are initially analyzed by FACS analysis software (Flow Jo).
Turning to `CN1CCN(c2ccc(Nc3cc(-c4cc(F)cc(N5CCn6c(cc7c6CCCC7)C5=O)c4CO)cn4ccnc34)nc2)CC1` [Compound 101, 2-(5-Fluoro-2-(hydroxymethyl)-3-(8-(5-(4-methylpiperazin-1-yl)pyridin-2-ylamino)imidazo[1,2-a]pyridin-6-yl)phenyl)-3,4,6,7,8,9-hexahydropyrazino[1,2-a]indol-1(2H)-one], the CD69 Hu Blood FACS IC70 turned out to be 7 nM.

For `O=C1c2cc3c(n2CCN1c1cc(F)cc(-c2cc(Nc4ccc(N5CCN(C6COC6)CC5)cn4)c4nccn4c2)c1CO)CCCC3` [Compound 102, 2-(5-Fluoro-2-(hydroxymethyl)-3-(8-(5-(4-(oxetan-3-yl)piperazine-1-yl)pyridine-2-ylamino)imidazo[1,2-a]pyridin-6-yl)phenyl)-3,4,6,7,8,9-hexahydro-pyrazino[1,2-a]indol-1(2H)-one], the CD69 Hu Blood FACS IC70 was found to be 11 nM.

Compound `CN1CCN(c2ccc(Nc3cc(-c4cc(F)cc(N5CCc6c(sc7c6CCCC7)C5=O)c4CO)cn4ccnc34)nc2)CC1` [Compound 103, 5-[5-Fluoro-2-(hydroxymethyl)-3-{(8-(5-(4-methylpiperazin-1-yl)pyridine-2-ylamino)imidazo[1,2-a]pyridin-6-yl)}phenyl]-8-thia-5-azatricyclo[7.4.0.0^2,7]trideca-1(9),2(7)-dien-6-one] showed a CD69 Hu Blood FACS IC70 of 319 nM.

The compound `CN1CCN(c2ccc(Nc3cc(-c4cc(F)cc(N5CCn6c(cc7c6CCCC7)C5=O)c4CO)nn4ccnc34)nc2)CC1` [Compound 104, 2-(5-Fluoro-2-(hydroxymethyl)-3-(8-(5-(4-methylpiperazin-1-yl)pyridin-2-ylamino)imidazo[1,2-b]pyridazin-6-yl)phenyl)-3,4,6,7,8,9-hexahydropyrazino[1,2-a]indol-1(2H)-one] returned a CD69 Hu Blood FACS IC70 of 96 nM.

For `O=C1c2cc3c(n2CCN1c1cc(F)cc(-c2cc(Nc4ccc(N5CCN(C6COC6)CC5)cn4)c4nccn4n2)c1CO)CCCC3` [Compound 105, 2-(5-Fluoro-2-(hydroxymethyl)-3-(8-(5-(4-(oxetan-3-yl)piperazin-1-yl)pyridin-2-ylamino)imidazo[1,2-b]pyridazin-6-yl)phenyl)-3,4,6,7,8,9-hexahydro-pyrazino[1,2-a]indol-1(2H)-one], the CD69 Hu Blood FACS IC70 stood at 49 nM.

The compound `CN1CCN(c2ccc(Nc3nc(-c4cc(F)cc(N5CCn6c(cc7c6CCCC7)C5=O)c4CO)cn4ccnc34)nc2)CC1` [Compound 106, 2-(5-Fluoro-2-(hydroxymethyl)-3-(8-(5-(4-methylpiperazin-1-yl)pyridin-2-ylamino)imidazo[1,2-a]pyrazin-6-yl)phenyl)-3,4,6,7,8,9-hexahydropyrazino[1,2-a]indol-1(2H)-one] registered a CD69 Hu Blood FACS IC70 of 814 nM.

Regarding `O=C1c2cc3c(n2CCN1c1cc(F)cc(-c2cn4ccnc4c(Nc4ccc(N5CCN(C6COC6)CC5)cn4)n2)c1CO)CCCC3` [Compound 107, 2-(5-Fluoro-2-(hydroxymethyl)-3-(8-(5-(4-(oxetan-3-yl)piperazin-1-yl)pyridin-2-ylamino)imidazo[1,2-a]pyrazin-6-yl)phenyl)-3,4,6,7,8,9-hexahydro-pyrazino[1,2-a]indol-1(2H)-one], the CD69 Hu Blood FACS IC70 was 939 nM.

In turn, `O=C1c2cc3c(n2CCN1c1cc(F)cc(-c2cc(Nc4ccc(N5CCN(C6COC6)CC5)cn4)c4ncnn4c2)c1CO)CCCC3` [Compound 108, 2-(5-Fluoro-2-(hydroxymethyl)-3-(8-(5-(4-(oxetan-3-yl)piperazin-1-yl)pyridin-2-ylamino)-[1,2,4]triazolo[1,5-a]pyridin-6-yl)phenyl)-3,4,6,7,8,9-hexahydropyrazino[1,2-a]indol-1(2H)-one] gave a CD69 Hu Blood FACS IC70 of 58 nM.

The compound `Cn1cnc2c(Nc3ccc(N4CCN(C5COC5)CC4)cn3)cc(-c3cc(F)cc(N4CCn5c(cc6c5CCCC6)C4=O)c3CO)cc21` [Compound 109, 2-(5-Fluoro-2-(hydroxymethyl)-3-(3-methyl-7-(5-(4-(oxetan-3-yl)piperazin-1-yl)pyridin-2-ylamino)-3H-benzo[d]imidazol-5-yl)phenyl)-3,4,6,7,8,9-hexahydropyrazino[1,2-a]indol-1(2H)-one] displayed a CD69 Hu Blood FACS IC70 of 1300 nM.

As for `CC1(C)Cc2cc3n(c2C1)CCN(c1cc(F)cc(-c2cc(Nc4ccc(N5CCN(C6COC6)CC5)cn4)c4nccn4n2)c1CO)C3=O` [Compound 110, 10-[5-Fluoro-2-(hydroxymethyl)-3-(8-(5-(4-(oxetan-3-yl)piperazin-1-yl)pyridin-2-ylamino)imidazo[1,2-b]pyridazin-6-yl)phenyl]-4,4-dimethyl-1,10-diazatricyclo[6.4.0.0^2,6]dodeca-2(6),7-dien-9-one], the CD69 Hu Blood FACS IC70 worked out at 15 nM.

On to `O=C1c2sc3c(c2CCN1c1cc(F)cc(-c2cc(Nc4ccc(N5CCN(C6COC6)CC5)cn4)c4nccn4n2)c1CO)CCCC3` [Compound 111, 5-[5-Fluoro-2-(hydroxymethyl)-3-(8-(5-(4-(oxetan-3-yl)piperazin-1-yl)pyridin-2-ylamino)imidazo[1,2-b]pyridazin-6-yl)phenyl]-8-thia-5-azatricyclo[7.4.0.0^2,7]trideca-1(9),2(7)-dien-6-one], for which the CD69 Hu Blood FACS IC70 came out at 313 nM.

For the compound `O=c1c2sc3c(c2cnn1-c1cc(F)cc(-c2cc(Nc4ccc(N5CCN(C6COC6)CC5)cn4)c4nccn4n2)c1CO)CCCC3` [Compound 112, 5-[5-Fluoro-2-(hydroxymethyl)-3-(8-(5-(4-(oxetan-3-yl)piperazin-1-yl)pyridin-2-ylamino)imidazo[1,2-b]pyridazin-6-yl)phenyl]-8-thia-4,5-diazatricyclo-[7.4.0.0^2,7]trideca-1(9),2(7),3-trien-6-one], the CD69 Hu Blood FACS IC70 came out at 126 nM.

Consider `CC1(C)Cc2sc3c(c2C1)CCN(c1cc(F)cc(-c2cc(Nc4ccc(N5CCN(C6COC6)CC5)cn4)c4nccn4n2)c1CO)C3=O` [Compound 113, 10-[5-Fluoro-2-(hydroxymethyl)-3-(8-(5-(4-(oxetan-3-yl)piperazin-1-yl)pyridine-2-ylamino)imidazo[1,2-b]pyridazin-6-yl)phenyl]-4,4-dimethyl-7-thia-10-azatricyclo[6.4.0.0^2,6]dodeca-1(8),2(6)-dien-9-one], for which the CD69 Hu Blood FACS IC70 was found to be 12 nM.

In turn, `O=C1c2cc3c(n2CCN1c1nccc(-c2cc(Nc4ccc(N5CCN(C6COC6)CC5)cn4)c4nccn4n2)c1CO)CCCC3` [Compound 114, 2-(3-(Hydroxymethyl)-4-(8-(5-(4-(oxetan-3-yl)piperazin-1-yl)pyridin-2-ylamino)imidazo[1,2-b]pyridazin-6-yl)pyridin-2-yl)-3,4,6,7,8,9-hexahydropyrazino[1,2-a]indol-1(2H)-one] registered a CD69 Hu Blood FACS IC70 of 118 nM.

Staying with this experiment, now noted: anti-IgM stimulated, 20 hour incubation, CD69+ of CD20+ cells, Table 2.
As for `O=C1c2cc3c(n2CCN1c1cc(F)cc(-c2cc(Nc4ccc(N5CCN(C6COC6)CC5)cn4)c4nc[nH]c4c2)c1CO)CCCC3` [Compound 116, 2-[5-fluoro-2-(hydroxymethyl)-3-[7-[[5-[4-(oxetan-3-yl)piperazin-1-yl]-2-pyridyl]amino]-3H-benzimidazol-5-yl]phenyl]-3,4,6,7,8,9-hexahydropyrazino[1,2-a]indol-1-one], the CD69 Hu Blood FACS IC70 is 1300 nM.

Regarding `O=C1c2cc3c(n2CCN1c1cc(F)cc(-c2nc(Nc4ccc(N5CCN(C6COC6)CC5)cc4)c4nc[nH]c4n2)c1CO)CCCC3` [Compound 117, 2-[5-fluoro-2-(hydroxymethyl)-3-[6-[4-[4-(oxetan-3-yl)piperazin-1-yl]anilino]-9H-purin-2-yl]phenyl]-3,4,6,7,8,9-hexahydropyrazino[1,2-a]indol-1-one], the CD69 Hu Blood FACS IC70 was determined as 812 nM.

Source of the values: patent US8722676B2, “Bicyclic piperazine compounds” (Genentech, Inc., priority 2011, dated 2014).
